Results on 13 molecules are retold here after patent US7812178B2, “Isoquinoline compound and pharmaceutical use thereof” (Mitsubishi Tanabe Pharma Corporation, priority 2002, dated 2010).

The target of one data set is T1, recombinant human PARP (Homo sapiens, UniProt P09874).
T1 construct: purchased Trevigen 4667-02X
Nature of the data set: PARP enzyme activity inhibitory action (3H-NAD poly ADP-ribosylation, filter assay). The format is biochemical. Particulars: 25° C., 15 min. The method, then: After incubation at 25° C. for 15 min., the reaction was stopped with 20% trichloroacetic acid, and the resulting acid insoluble fraction was adsorbed to a GF/B filter. The filter was washed several times with 5% trichloroacetic acid, and the radiation dose on the filter was measured with a liquid scintillation counter.

Data set [1] is described as follows: Determination of stability in physiological saline at room temperature (residual ratio by HPLC). Particulars: for Residual rate (%) under non-shielding 7 days later / Residual rate (%) under shielding 7 days later: day 7; for Residual rate (%) under non-shielding 11 days later / Residual rate (%) under shielding 11 days later: day 11. It counts as physicochemical. The method, then:
Each compound was dissolved in physiological saline to give solutions having a concentration of 1.0 mg/mL or 10 mg/mL. They were preserved at room temperature, under shielding or non-shielding and the residual ratio at day 7 and day 11 was measured by HPLC. […]
column: Inertsil ODS3V (GL Science Inc.)
Mobile phase: methanol: 0.01 mol/L aqueous ammonium acetate solution detection wavelength: 254 nm

Where [2] appears, read: 1.0 mg/mL in physiological saline.
[3] abbreviates: 10 mg/mL in physiological saline.

T1 sequence (P09874 whole entry): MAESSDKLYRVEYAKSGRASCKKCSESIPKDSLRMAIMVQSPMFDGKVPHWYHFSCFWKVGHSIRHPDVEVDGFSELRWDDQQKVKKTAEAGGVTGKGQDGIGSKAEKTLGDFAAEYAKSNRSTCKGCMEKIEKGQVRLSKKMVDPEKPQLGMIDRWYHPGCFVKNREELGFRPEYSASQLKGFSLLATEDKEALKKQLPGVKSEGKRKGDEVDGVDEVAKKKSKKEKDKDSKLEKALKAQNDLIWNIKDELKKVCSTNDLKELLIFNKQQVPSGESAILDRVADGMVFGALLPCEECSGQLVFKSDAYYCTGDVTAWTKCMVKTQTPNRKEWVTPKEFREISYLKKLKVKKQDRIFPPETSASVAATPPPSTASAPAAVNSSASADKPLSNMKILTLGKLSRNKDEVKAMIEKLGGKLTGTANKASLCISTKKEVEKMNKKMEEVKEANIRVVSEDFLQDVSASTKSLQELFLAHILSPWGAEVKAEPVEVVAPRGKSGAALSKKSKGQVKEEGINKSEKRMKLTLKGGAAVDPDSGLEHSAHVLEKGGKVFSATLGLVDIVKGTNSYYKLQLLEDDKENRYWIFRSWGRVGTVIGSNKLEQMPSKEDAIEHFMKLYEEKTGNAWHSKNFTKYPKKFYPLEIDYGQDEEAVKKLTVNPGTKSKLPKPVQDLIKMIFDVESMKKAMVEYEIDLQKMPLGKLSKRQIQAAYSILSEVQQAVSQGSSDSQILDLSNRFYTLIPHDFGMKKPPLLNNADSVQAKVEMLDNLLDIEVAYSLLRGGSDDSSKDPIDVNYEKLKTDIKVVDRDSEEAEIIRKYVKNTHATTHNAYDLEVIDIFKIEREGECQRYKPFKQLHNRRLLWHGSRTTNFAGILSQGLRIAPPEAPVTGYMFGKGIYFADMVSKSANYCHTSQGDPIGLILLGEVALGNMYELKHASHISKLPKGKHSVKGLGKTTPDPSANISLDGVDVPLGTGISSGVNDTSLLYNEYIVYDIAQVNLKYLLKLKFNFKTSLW

For orientation: melting point means the temperature of the solid-liquid transition. As a reminder, the IC50 is the concentration that gives 50% inhibition. `Cc1cccc2c(=O)[nH]c(C3CCN(CCO)C3)cc12` (single isomer, unassigned; (-)) [Ex. 37a, (−)-3-[1-(2-hydroxylethyl)pyrrolidin-3-yl]-5-methyl-2H-isoquinolin-1-one]: the melting point is 137.3 to 138.6 °C. The half-inhibitory concentration (IC50) at recombinant human PARP came to 20 nM.
Turning to `Cc1cccc2c(=O)[nH]c(C3CCN(CCCO)CC3)cc12` [Example 23a, 5-methyl-3-[1-(3-hydroxypropyl)piperidin-4-yl]-2H-isoquinolin-1-one], the melting point is 197 to 199 °C.
Turning to `Cc1cccc2c(=O)[nH]c(CCCN3CCC(O)C3)cc12` (stereo not shown) [Ex. 4a, 3-[3-(3-hydroxypyrrolidin-1-yl)propyl]-5-methyl-2H-isoquinolin-1-one], the IC50 on recombinant human PARP is 46 nM.
Take `Cc1cccc2c(=O)[nH]c(CCN3CC[C@@H](O)C3)cc12` [Ex. 1a, (R)-3-[2-(3-hydroxypyrrolidin-1-yl)ethyl]-5-methyl-2H-isoquinolin-1-one]: in data set [1] (setting [2]), the “Residual rate (%) under non-shielding 7 days later” value is listed as “≈100%”, the “Residual rate (%) under non-shielding 11 days later” value is on record as “≈100%”, the “Residual rate (%) under shielding 7 days later” value was “≈100%” and the “Residual rate (%) under shielding 11 days later” value is recorded as “≈100%”. In addition, in data set [1] (setting [3]), the “Residual rate (%) under non-shielding 7 days later” value is reported as “≈100%”, the “Residual rate (%) under non-shielding 11 days later” value is “≈100%”, the “Residual rate (%) under shielding 7 days later” value is listed as “≈100%” and the “Residual rate (%) under shielding 11 days later” value is recorded as “≈100%”. For the same molecule, the IC50 on recombinant human PARP is 39 nM.
With `Cc1cccc2c(=O)[nH]c(C3CCN(CCO)C3)cc12` (stereo not shown) [Ex. 28a, 3-[1-(2-hydroxyethyl)pyrrolidin-3-yl]-5-methyl-2H-isoquinolin-1-one], the concentration for half-maximal inhibition (IC50) at recombinant human PARP amounted to 35 nM.
Regarding `Cc1cccc2c(=O)[nH]c(C3CCN(CCO)C3)cc12` (single isomer, unassigned; (+)) [Ex. 38a, (+)-3-[1-(2-hydroxylethyl)pyrrolidin-3-yl]-5-methyl-2H-isoquinolin-1-one], the melting point was 137 to 138.6 °C. For the same molecule, the IC50 on recombinant human PARP was 29 nM.
As to `O=c1[nH]c(C2CCN(CCO)CC2)cc2ccccc12` [Ex. 9a, 3-[1-(2-hydroxyethyl)piperidin-4-yl]-2H-isoquinolin-1-one], the IC50 on recombinant human PARP was determined as 44 nM.
With `Cc1cccc2c(=O)[nH]c(C3CCN(CCO)CC3)cc12` [Ex. 2a, 3-[1-(2-hydroxyethyl)piperidin-4-yl]-5-methyl-2H-isoquinolin-1-one], in data set [1] (setting [2]), the “Residual rate (%) under non-shielding 7 days later” value is “≈100%”, the “Residual rate (%) under non-shielding 11 days later” value is “≈100%”, the “Residual rate (%) under shielding 7 days later” value is “≈100%” and the “Residual rate (%) under shielding 11 days later” value is “≈100%”. Also, in data set [1] (setting [3]), the “Residual rate (%) under non-shielding 7 days later” value is reported as “≈100%”, the “Residual rate (%) under non-shielding 11 days later” value was “≈100%”, the “Residual rate (%) under shielding 7 days later” value is “≈100%” and the “Residual rate (%) under shielding 11 days later” value was “≈100%”. Further, the half-maximal inhibitory concentration (IC50) on recombinant human PARP was 17 nM.
Consider `Cc1cccc2c(=O)[nH]c(CCN3CC[C@H](O)C3)cc12` [Ex. 34a, (S)-3-[2-(3-hydroxypyrrolidin-1-yl)ethyl]-5-methyl-2H-isoquinolin-1-one], for which the melting point was in the range of 176 to 178 °C. Besides, the concentration for half-maximal inhibition (IC50) at recombinant human PARP was 34 nM.
In turn, `Cc1cccc2c(=O)[nH]c(CCN3CCCC(O)C3)cc12` (stereo not shown) [Example 32a, 3-[2-(3-hydroxypiperidin-1-yl)ethyl]-5-methyl-2H-isoquinolin-1-one] had a melting point of 184 to 185 °C.
As for `Cc1cccc2c(=O)[nH]c(CCN3CCC[C@@H](O)C3)cc12` [Example 35a, (R)-3-[2-(3-hydroxypiperidin-1-yl)ethyl]-5-methyl-2H-isoquinolin-1-one], the melting point fell in the range of 180 to 181 °C.
For `Cc1cccc2c(=O)[nH]c(CCN3CCC[C@@H]3CO)cc12` [Ex. 36a, (R)-3-[2-(2-hydroxymethylpyrrolidin-1-yl)ethyl]-5-methyl-2H-isoquinolin-1-one], in data set [1] (setting [2]), the “Residual rate (%) under non-shielding 7 days later” value is reported as “≈100%”, the “Residual rate (%) under non-shielding 11 days later” value was “≈100%”, the “Residual rate (%) under shielding 7 days later” value is on record as “≈100%” and the “Residual rate (%) under shielding 11 days later” value was “≈100%”. In data set [1] (setting [3]), the “Residual rate (%) under non-shielding 7 days later” value is given as “≈100%”, the “Residual rate (%) under non-shielding 11 days later” value is given as “≈100%”, the “Residual rate (%) under shielding 7 days later” value is recorded as “≈100%” and the “Residual rate (%) under shielding 11 days later” value was “≈100%”. Further, the IC50 at recombinant human PARP is 29 nM.
In the case of `Cc1cccc2c(=O)[nH]c(CCN3CCC(O)C3)cc12` (stereo not shown) [Ex. 5a, 3-[2-(3-hydroxypyrrolidin-1-yl)ethyl]-5-methyl-2H-isoquinolin-1-one], the concentration for half-maximal inhibition (IC50) at recombinant human PARP worked out at 50 nM.
